The subject of experiment [1] is Beet Armyworm (Spodoptera exigua) ("BAW"), second instar larvae. Briefly: Bioassay on beet armyworm (BAW), 128-well diet tray assay. It is filed as in vivo. The note with it: Spodoptera exigua, read-out: BAW (Biological Results, rating). In a few lines:
(§1)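 Each value represents average percent mortality from eight wells. Larvae were kept in clear-covered trays at 25° C. for five to seven days on a 14-hour light, 10-hour dark schedule before scoring.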

The test system of experiment [2] is Cabbage Looper (Trichoplusia ni) ("CL"), second instar larvae. The experiment is described as follows: Bioassay on cabbage looper (CL), 128-well diet tray assay. It is filed as in vivo. The note with it: Trichoplusia ni, read-out: CL (Biological Results, rating). The gist of the method: as §1

Molecules are shown by their SMILES.

Consider `Cc1ccc(OCC(F)(F)F)c(N2C(=O)CS/C2=N\C(=O)Nc2ccc(-c3ncn(-c4cccc(OC(F)(F)F)c4)n3)cc2F)c1` [Compound J121, (Z)-1-(2-Fluoro-4-(1-(3-(trifluoromethoxy)phenyl)-1H-1,2,4-triazol-3-yl)phenyl)-3-(3-(5-methyl-2-(2,2,2-trifluoroethoxy)phenyl)-4-oxothiazolidin-2-ylidene)urea], for which the pest or weed control at 50 µg/cm2 in experiment [1] was in the range of 0 to 50%; in experiment [2], 50 to 100%.
Turning to `CCOC(C)c1ccc(C)cc1N1C(=O)CS/C1=N\C(=O)Nc1ccc(-c2ncn(-c3ccc(OC(F)(F)F)cc3)n2)cc1F` (stereo not shown) [Compound J124, (Z)-1-(3-(2-(1-Ethoxyethyl)-5-methylphenyl)-4-oxothiazolidin-2-ylidene)-3-(2-fluoro-4-(1-(4-(trifluoromethoxy)phenyl)-1H-1,2,4-triazol-3-yl)phenyl)urea], the pest or weed control at 50 µg/cm2 in experiment [1] and in experiment [2] was 50 to 100% each time.
As to `CCCOc1ccc(C)cc1N1C(=O)CS/C1=N\C(=O)Nc1ccc(-c2ncn(-c3ccc(OC(F)(F)F)cc3)n2)cc1F` [Compound J125, (Z)-1-(2-Fluoro-4-(1-(4-(trifluoromethoxy)phenyl)-1H-1,2,4-triazol-3-yl)phenyl)-3-(3-(5-methyl-2-propoxyphenyl)-4-oxothiazolidin-2-ylidene)urea], the pest or weed control at 50 µg/cm2 in experiment [1] and in experiment [2] was 50 to 100% in each case.
Take `CCCNc1ccc(C(C)C)c(N2C(=O)CS/C2=N\C(=O)Nc2ccc(-c3ncn(-c4ccc(OC(F)(F)F)cc4)n3)cc2C)c1` [Compound J128, (Z)-1-(3-(2-Isopropyl-5-(propylamino)phenyl)-4-oxothiazolidin-2-ylidene)-3-(2-methyl-4-(1-(4-(trifluoromethoxy)phenyl)-1H-1,2,4-triazol-3-yl)phenyl)urea]: the pest or weed control at 50 µg/cm2 in experiment [1] and in experiment [2] was 50 to 100% throughout.
As for `CCN(CC)c1ccc(C(C)C)c(N2C(=O)CS/C2=N\C(=O)Nc2ccc(-c3ncn(-c4ccc(OC(F)(F)F)cc4)n3)cc2C)c1` [Compound J129, (Z)-1-(3-(5-(Diethylamino)-2-isopropylphenyl)-4-oxothiazolidin-2-ylidene)-3-(2-methyl-4-(1-(4-(trifluoromethoxy)phenyl)-1H-1,2,4-triazol-3-yl)phenyl)urea], the pest or weed control at 50 µg/cm2 in experiment [1] and in experiment [2] was 50 to 100% in each case.
Turning to `CCCN(CCC)c1ccc(C(C)C)c(N2C(=O)CS/C2=N\C(=O)Nc2ccc(-c3ncn(-c4ccc(OC(F)(F)F)cc4)n3)cc2C)c1` [Compound J130, (Z)-1-(3-(5-(Dipropylamino)-2-isopropylphenyl)-4-oxothiazolidin-2-ylidene)-3-(2-methyl-4-(1-(4-(trifluoromethoxy)phenyl)-1H-1,2,4-triazol-3-yl)phenyl)urea], the pest or weed control at 50 µg/cm2 in experiment [1] and in experiment [2] was 50 to 100% throughout.
`Cc1ccc(C(C)C)c(N2C(=O)CS/C2=N\C(=O)Nc2ccc(-c3ncn(-c4cccc(C(F)(F)F)c4)n3)cc2C)c1` [Compound J131, (Z)-1-(3-(2-Isopropyl-5-methylphenyl)-4-oxothiazolidin-2-ylidene)-3-(2-methyl-4-(1-(3-(trifluoromethyl)phenyl)-1H-1,2,4-triazol-3-yl)phenyl)urea]: the pest or weed control at 50 µg/cm2 in experiment [1] and in experiment [2] was 50 to 100% throughout.
Turning to `Cc1ccc(C(C)C)c(N2C(=O)CS/C2=N\C(=O)Nc2ccc(-c3ncn(-c4cccc(C(F)(F)F)c4)n3)cc2F)c1` [Compound J140, (Z)-1-(2-Fluoro-4-(1-(3-(trifluoromethyl)phenyl)-1H-1,2,4-triazol-3-yl)phenyl)-3-(3-(2-isopropyl-5-methylphenyl)-4-oxothiazolidin-2-ylidene)urea], the pest or weed control at 50 µg/cm2 in experiment [1] and in experiment [2] was 50 to 100% throughout.
As to `COc1ccc(-n2cnc(-c3ccc(NC(=O)/N=C4\SCC(=O)N4c4cc(C)ccc4C(C)C)c(F)c3)n2)cc1` [Compound J144, (Z)-1-(2-Fluoro-4-(1-(4-methoxyphenyl)-1H-1,2,4-triazol-3-yl)phenyl)-3-(3-(2-isopropyl-5-methylphenyl)-4-oxothiazolidin-2-ylidene)urea], the pest or weed control at 50 µg/cm2 in experiment [1] and in experiment [2] was 50 to 100% in each case.
As for `COc1ccc(-n2cnc(-c3ccc(NC(=O)/N=C4\SCC(=O)N4c4cc(C)ccc4OCCC(F)(F)F)c(F)c3)n2)cc1` [Compound J147, (Z)-1-(2-Fluoro-4-(1-(4-methoxyphenyl)-1H-1,2,4-triazol-3-yl)phenyl)-3-(3-(5-methyl-2-(3,3,3-trifluoropropoxy)phenyl)-4-oxothiazolidin-2-ylidene)urea], the pest or weed control at 50 µg/cm2 in experiment [1] and in experiment [2] was 50 to 100% throughout.
Consider `Cc1ccc(-n2cnc(-c3ccc(NC(=O)/N=C4\SCC(=O)N4c4cc(N(C)C)ccc4C(C)C)c(F)c3)n2)cc1` [Compound J150, (Z)-1-(3-(5-(Dimethylamino)-2-isopropylphenyl)-4-oxothiazolidin-2-ylidene)-3-(2-fluoro-4-(1-(p-tolyl)-1H-1,2,4-triazol-3-yl)phenyl)urea], for which the pest or weed control at 50 µg/cm2 in experiment [1] and in experiment [2] was 50 to 100% throughout.
With `CC(C)c1ccc(N(C)C)cc1N1C(=O)CS/C1=N\C(=O)Nc1ccc(-c2ncn(-c3cccc(OC(F)(F)F)c3)n2)cc1F` [Compound J155, (Z)-1-(3-(5-(Dimethylamino)-2-isopropylphenyl)-4-oxothiazolidin-2-ylidene)-3-(2-fluoro-4-(1-(3-(trifluoromethoxy)phenyl)-1H-1,2,4-triazol-3-yl)phenyl)urea], the pest or weed control at 50 µg/cm2 in experiment [1] and in experiment [2] was 50 to 100% each time.
For the compound `CCc1cc(-c2ncn(-c3ccc(OC(F)(F)F)cc3)n2)ccc1NC(=O)/N=C1\SCC(=O)N1c1cc(NC)ccc1C(C)C` [Compound J157, (Z)-1-(2-Ethyl-4-(1-(4-(trifluoromethoxy)phenyl)-1H-1,2,4-triazol-3-yl)phenyl)-3-(3-(2-isopropyl-5-(methylamino)phenyl)-4-oxothiazolidin-2-ylidene)urea], the pest or weed control at 50 µg/cm2 in experiment [1] and in experiment [2] was 50 to 100% each time.
In the case of `CCNc1ccc(C(C)C)c(N2C(=O)CS/C2=N\C(=O)Nc2ccc(-c3ncn(-c4ccc(OC(F)(F)F)cc4)n3)cc2CC)c1` [Compound J158, (Z)-1-(2-Ethyl-4-(1-(4-(trifluoromethoxy)phenyl)-1H-1,2,4-triazol-3-yl)phenyl)-3-(3-(5-(ethylamino)-2-isopropylphenyl)-4-oxothiazolidin-2-ylidene)urea], the pest or weed control at 50 µg/cm2 in experiment [1] and in experiment [2] was 50 to 100% each time.
`CCCNc1ccc(C(C)C)c(N2C(=O)CS/C2=N\C(=O)Nc2ccc(-c3ncn(-c4ccc(OC(F)(F)F)cc4)n3)cc2CC)c1` [Compound J159, (Z)-1-(2-Ethyl-4-(1-(4-(trifluoromethoxy)phenyl)-1H-1,2,4-triazol-3-yl)phenyl)-3-(3-(2-isopropyl-5-(propylamino)phenyl)-4-oxothiazolidin-2-ylidene)urea]: the pest or weed control at 50 µg/cm2 in experiment [1] and in experiment [2] was 50 to 100% throughout.
For `CCc1cc(-c2ncn(-c3ccc(OC(F)(F)F)cc3)n2)ccc1NC(=O)/N=C1\SCC(=O)N1c1cc(N(CC)CC)ccc1C(C)C` [Compound J160, (Z)-1-(3-(5-(Diethylamino)-2-isopropylphenyl)-4-oxothiazolidin-2-ylidene)-3-(2-ethyl-4-(1-(4-(trifluoromethoxy)phenyl)-1H-1,2,4-triazol-3-yl)phenyl)urea], the pest or weed control at 50 µg/cm2 in experiment [1] and in experiment [2] was 50 to 100% each time.
`CCCN(CCC)c1ccc(C(C)C)c(N2C(=O)CS/C2=N\C(=O)Nc2ccc(-c3ncn(-c4ccc(OC(F)(F)F)cc4)n3)cc2CC)c1` [Compound J161, (Z)-1-(3-(5-(Dipropylamino)-2-isopropylphenyl)-4-oxothiazolidin-2-ylidene)-3-(2-ethyl-4-(1-(4-(trifluoromethoxy)phenyl)-1H-1,2,4-triazol-3-yl)phenyl)urea]: the pest or weed control at 50 µg/cm2 fell in the range of 50 to 100% in experiment [1] and 0 to 50% in experiment [2].
`CC(C)c1cc(F)c(N(C)C)cc1N1C(=O)CS/C1=N\C(=O)Nc1ccc(-c2ncn(-c3ccc(OC(F)(F)F)cc3)n2)cc1F` [Compound J162, (Z)-1-(3-(5-(Dimethylamino)-4-fluoro-2-isopropylphenyl)-4-oxothiazolidin-2-ylidene)-3-(2-fluoro-4-(1-(4-(trifluoromethoxy)phenyl)-1H-1,2,4-triazol-3-yl)phenyl)urea]: the pest or weed control at 50 µg/cm2 in experiment [1] and in experiment [2] was 50 to 100% throughout.
For `Cc1ccc([N+](=O)[O-])c(N2C(=O)CS/C2=N\C(=O)Nc2ccc(-c3ncn(-c4ccc(OC(F)(F)F)cc4)n3)cc2F)c1` [Compound J163, (Z)-1-(2-Fluoro-4-(1-(4-(trifluoromethoxy)phenyl)-1H-1,2,4-triazol-3-yl)phenyl)-3-(3-(5-methyl-2-nitrophenyl)-4-oxothiazolidin-2-ylidene)urea], the pest or weed control at 50 µg/cm2 in experiment [1] and in experiment [2] was 50 to 100% each time.
For `CC(C)c1ccc(C(C)C)c(N2C(=O)CS/C2=N\C(=O)Nc2ccc(-c3ncn(-c4ccc(OC(F)(F)F)cc4)n3)cc2F)c1` [Compound J164, (Z)-1-(3-(2,5-Diisopropylphenyl)-4-oxothiazolidin-2-ylidene)-3-(2-fluoro-4-(1-(4-(trifluoromethoxy)phenyl)-1H-1,2,4-triazol-3-yl)phenyl)urea], the pest or weed control at 50 µg/cm2 in experiment [1] and in experiment [2] was 50 to 100% each time.

Source of the values: US20230077362A1 (CORTEVA AGRISCIENCE LLC, priority 2019, published 2023).
